In patent EP2773641B1, “BIARYL ETHER SULFONAMIDES AND THEIR USE AS THERAPEUTIC AGENTS” (Xenon Pharmaceuticals Inc., priority 2011, dated 2013):
pIC50: −log10 of the molar value. Like-named read-outs stand apart in the source and are kept apart here.

Columns and labels:
Nav1.7 = molecular target: T1, Nav1.7 (Homo sapiens, UniProt Q15858); assay: Patch voltage clamp electrophysiology assay, block of the inactivated state of Nav1.7; type: cell-based; details: affinity for the inactivated state, HEK-293 cells stably expressing human Nav1.7 with β1 subunit, held at -60 mV
T1 construct: permanently transfected with an expression vector containing the full-length cDNA coding for the desired human sodium channel α-subunit; expressed in transfected cells
T1 sequence (Q15858 1-1977 isoform Q15858-3): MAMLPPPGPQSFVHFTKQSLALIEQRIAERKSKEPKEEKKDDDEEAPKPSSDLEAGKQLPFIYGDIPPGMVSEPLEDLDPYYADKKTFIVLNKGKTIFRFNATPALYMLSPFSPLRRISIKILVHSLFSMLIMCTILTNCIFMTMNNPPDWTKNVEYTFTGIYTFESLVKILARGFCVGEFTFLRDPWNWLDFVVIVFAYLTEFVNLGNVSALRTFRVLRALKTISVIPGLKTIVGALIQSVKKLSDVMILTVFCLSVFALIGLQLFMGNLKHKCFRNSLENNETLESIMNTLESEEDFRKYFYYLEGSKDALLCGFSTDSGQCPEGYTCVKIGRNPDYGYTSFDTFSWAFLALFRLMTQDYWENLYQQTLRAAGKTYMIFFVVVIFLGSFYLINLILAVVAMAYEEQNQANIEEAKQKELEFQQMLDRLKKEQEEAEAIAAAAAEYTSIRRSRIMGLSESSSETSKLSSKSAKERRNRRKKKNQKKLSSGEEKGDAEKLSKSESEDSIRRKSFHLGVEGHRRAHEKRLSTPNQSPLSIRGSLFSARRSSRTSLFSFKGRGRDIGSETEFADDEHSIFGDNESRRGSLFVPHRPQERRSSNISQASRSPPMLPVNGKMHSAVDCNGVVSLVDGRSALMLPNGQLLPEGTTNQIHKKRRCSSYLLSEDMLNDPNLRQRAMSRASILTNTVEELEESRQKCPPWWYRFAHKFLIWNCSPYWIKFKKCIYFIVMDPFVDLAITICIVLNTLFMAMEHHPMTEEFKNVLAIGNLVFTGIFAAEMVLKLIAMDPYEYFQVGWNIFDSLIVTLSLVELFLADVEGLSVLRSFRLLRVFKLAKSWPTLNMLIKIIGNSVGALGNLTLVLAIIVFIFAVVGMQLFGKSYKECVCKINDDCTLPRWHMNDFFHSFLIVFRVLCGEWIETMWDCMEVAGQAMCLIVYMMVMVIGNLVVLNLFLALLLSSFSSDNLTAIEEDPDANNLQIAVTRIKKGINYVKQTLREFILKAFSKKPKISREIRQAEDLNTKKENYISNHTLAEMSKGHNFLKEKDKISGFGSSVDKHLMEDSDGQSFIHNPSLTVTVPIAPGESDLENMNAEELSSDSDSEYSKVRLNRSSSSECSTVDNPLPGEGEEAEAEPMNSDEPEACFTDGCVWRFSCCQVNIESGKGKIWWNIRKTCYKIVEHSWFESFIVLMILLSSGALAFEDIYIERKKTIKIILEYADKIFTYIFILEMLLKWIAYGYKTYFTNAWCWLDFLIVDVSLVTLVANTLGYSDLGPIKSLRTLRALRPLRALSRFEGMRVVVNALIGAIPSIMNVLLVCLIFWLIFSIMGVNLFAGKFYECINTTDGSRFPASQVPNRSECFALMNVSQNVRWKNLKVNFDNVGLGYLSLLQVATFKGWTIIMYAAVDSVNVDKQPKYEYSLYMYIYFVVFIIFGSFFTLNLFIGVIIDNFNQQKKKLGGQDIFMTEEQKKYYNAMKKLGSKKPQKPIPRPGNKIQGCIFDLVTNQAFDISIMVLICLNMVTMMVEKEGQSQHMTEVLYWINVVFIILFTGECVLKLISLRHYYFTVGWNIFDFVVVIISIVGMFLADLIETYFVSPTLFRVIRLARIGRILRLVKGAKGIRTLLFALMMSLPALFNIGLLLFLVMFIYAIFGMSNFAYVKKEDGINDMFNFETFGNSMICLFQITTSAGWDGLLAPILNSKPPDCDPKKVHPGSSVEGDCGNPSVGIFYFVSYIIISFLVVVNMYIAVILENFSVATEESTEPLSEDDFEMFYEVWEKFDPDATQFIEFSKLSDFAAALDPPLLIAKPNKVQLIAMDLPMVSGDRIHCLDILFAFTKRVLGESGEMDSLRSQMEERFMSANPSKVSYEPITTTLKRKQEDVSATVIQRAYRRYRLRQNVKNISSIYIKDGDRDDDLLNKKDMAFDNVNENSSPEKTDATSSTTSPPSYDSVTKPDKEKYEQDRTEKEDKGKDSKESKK
T1 sequence (Q07699 19-218 partner): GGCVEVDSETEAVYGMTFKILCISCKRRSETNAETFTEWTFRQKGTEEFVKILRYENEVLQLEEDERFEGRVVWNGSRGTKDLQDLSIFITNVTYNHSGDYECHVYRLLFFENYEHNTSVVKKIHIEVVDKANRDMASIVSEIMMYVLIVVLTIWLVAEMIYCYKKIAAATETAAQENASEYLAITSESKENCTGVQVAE
Description: (§1) The following patch voltage clamp electrophysiology studies were performed on representative compounds of the invention using human embryonic kidney cells (HEK), permanently transfected with an expression vector containing the full-length cDNA coding for the desired human sodium channel α-subunit, grown in culture media containing 10% FBS, 1% PSG, and 0.5 mg/mL G418 at 37 °C with 5% CO2. […] Nav1.7 and Nav1.5 cDNAs (NM_002977 and AC137587; SCN5A, respectively) were stably expressed in HEK-293 cells. The β1 subunit was coexpressed only in the Nav1.7 cell line.
Sodium currents were measured using the patch clamp technique in the whole-cell configuration using either a PatchXpress automated voltage clamp or manually using an Axopatch 200B (Axon Instruments) or Model 2400 (A-M systems) amplifier. […] The pipette was filled with a solution comprised of: 5 mM NaCl, 10 mM CsCl, 120 mM CsF, 0.1 mM CaCl2, 2 mM MgCl2, 10 mM HEPES, 10 mM EGTA; and adjusted to pH 7.2 with CsOH. The external solution had the following composition: 140 mM NaCl, 5 mM KCI, 2 mM CaCl2, 1 mM MgCl2, 10 mM HEPES; and adjusted to pH 7.4 with NaOH. In some studies, the external sodium was reduced by equimolar replacement with choline. Osmolarity in the CsF internal and NaCl external solutions was adjusted to 300 mOsm/kg and 310 mOsm/kg with glucose, respectively. All recordings were performed at ambient temperature in a bath chamber with a volume of 150 µL. Control sodium currents were measured in 0.5% DMSO. Controls and representative compounds of the invention were applied to the recording chamber through a 4-pinch or 8-pinch valve bath perfusion system manufactured by ALA Scientific Instruments.
Series resistance compensation was applied (60-80%). […] All statistics in this study are given as mean ± SD.
The membrane potential was maintained at a voltage where inactivation of the channel is complete (which was -60 mV for both Nav1.7 and Nav1.5). The voltage is then stepped back to a very negative (Vhold = -150mV) voltage for 20 ms and then a test pulse is applied to quantify the compound block. […] The percent decrease in sodium current following wash-on of compound was taken as the percent block of sodium channels.
The Example numbers provided in Table 1 and Table 2 correspond to the Examples herein.

Nav1.5 = molecular target: T2, Nav1.5 (Homo sapiens, UniProt Q14524); assay: Patch voltage clamp electrophysiology assay, block of the inactivated state of Nav1.5; type: cell-based; details: IC50 class; affinity for the inactivated state; HEK-293 cells stably expressing human Nav1.5; held at -60 mV
T2 construct: permanently transfected with an expression vector containing the full-length cDNA coding for the desired human sodium channel α-subunit; expressed in transfected cells
T2 sequence (Q14524 whole entry): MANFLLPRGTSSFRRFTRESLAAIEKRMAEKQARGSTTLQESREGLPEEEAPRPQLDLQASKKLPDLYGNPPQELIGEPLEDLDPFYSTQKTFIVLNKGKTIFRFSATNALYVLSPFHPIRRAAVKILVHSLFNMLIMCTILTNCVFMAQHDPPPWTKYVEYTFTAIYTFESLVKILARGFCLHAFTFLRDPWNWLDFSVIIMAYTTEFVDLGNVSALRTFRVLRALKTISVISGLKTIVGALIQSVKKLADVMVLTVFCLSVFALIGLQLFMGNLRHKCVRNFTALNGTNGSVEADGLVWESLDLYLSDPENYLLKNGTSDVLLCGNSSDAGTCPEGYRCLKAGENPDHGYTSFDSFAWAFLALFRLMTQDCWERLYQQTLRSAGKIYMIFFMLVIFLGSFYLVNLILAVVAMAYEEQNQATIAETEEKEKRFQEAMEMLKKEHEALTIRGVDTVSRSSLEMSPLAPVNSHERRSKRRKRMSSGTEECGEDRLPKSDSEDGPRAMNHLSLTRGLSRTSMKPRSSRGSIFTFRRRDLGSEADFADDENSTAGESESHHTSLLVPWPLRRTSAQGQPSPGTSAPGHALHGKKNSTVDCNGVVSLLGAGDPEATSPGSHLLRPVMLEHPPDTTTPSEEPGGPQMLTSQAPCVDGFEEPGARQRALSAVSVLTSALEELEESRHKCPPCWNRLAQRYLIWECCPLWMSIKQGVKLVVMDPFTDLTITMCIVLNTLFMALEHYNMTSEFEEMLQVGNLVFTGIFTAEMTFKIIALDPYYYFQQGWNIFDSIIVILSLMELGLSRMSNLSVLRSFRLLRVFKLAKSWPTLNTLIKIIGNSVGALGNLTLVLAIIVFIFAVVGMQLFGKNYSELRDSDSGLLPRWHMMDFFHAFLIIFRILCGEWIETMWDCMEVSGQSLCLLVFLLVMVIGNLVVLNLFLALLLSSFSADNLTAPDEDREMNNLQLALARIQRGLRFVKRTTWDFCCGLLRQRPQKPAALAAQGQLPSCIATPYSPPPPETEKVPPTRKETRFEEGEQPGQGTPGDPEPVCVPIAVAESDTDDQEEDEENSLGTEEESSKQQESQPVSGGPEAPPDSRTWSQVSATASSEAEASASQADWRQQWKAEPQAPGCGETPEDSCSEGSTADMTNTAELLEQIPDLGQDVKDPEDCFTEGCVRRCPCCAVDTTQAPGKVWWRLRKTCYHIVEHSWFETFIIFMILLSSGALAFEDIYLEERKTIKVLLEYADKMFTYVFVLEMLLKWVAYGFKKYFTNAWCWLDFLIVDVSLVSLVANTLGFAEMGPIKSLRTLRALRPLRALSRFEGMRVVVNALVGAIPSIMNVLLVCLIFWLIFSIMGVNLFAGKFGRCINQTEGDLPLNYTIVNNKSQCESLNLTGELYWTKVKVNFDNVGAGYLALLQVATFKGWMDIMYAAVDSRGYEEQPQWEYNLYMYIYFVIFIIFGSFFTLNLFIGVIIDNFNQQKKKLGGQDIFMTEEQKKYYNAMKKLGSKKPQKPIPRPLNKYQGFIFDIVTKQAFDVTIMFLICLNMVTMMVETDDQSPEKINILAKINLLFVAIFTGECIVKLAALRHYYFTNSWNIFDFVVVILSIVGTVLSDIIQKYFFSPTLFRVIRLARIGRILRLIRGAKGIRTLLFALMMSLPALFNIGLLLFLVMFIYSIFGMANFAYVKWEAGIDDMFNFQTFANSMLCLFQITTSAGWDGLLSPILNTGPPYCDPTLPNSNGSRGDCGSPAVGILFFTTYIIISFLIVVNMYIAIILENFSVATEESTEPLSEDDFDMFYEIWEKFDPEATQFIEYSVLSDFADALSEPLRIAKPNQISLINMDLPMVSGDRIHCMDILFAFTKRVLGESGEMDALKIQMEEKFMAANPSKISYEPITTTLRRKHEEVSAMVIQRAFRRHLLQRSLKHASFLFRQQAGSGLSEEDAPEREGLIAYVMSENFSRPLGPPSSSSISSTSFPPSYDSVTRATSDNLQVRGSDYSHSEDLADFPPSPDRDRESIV
Description: Patch voltage clamp electrophysiology allows for the direct measurement and quantification of block of voltage-gated sodium channels (Nav's), and allows the determination of the time- and voltage-dependence of block which has been interpreted as differential binding to the resting, open, and inactivated states of the sodium channel (Hille, B., Journal of General Physiology (1977), 69: 497-515).
as §1
Sodium currents were measured using the patch clamp technique in the whole-cell configuration using either a PatchXpress automated voltage clamp or manually using an Axopatch 200B (Axon Instruments) or Model 2400 (A-M systems) amplifier. The manual voltage clamp protocol was as follows: Borosilicate glass micropipettes were fire-polished to a tip diameter yielding a resistance of 2-4 Mohms in the working solutions. The pipette was filled with a solution comprised of: 5 mM NaCl, 10 mM CsCl, 120 mM CsF, 0.1 mM CaCl2, 2 mM MgCl2, 10 mM HEPES, 10 mM EGTA; and adjusted to pH 7.2 with CsOH. The external solution had the following composition: 140 mM NaCl, 5 mM KCI, 2 mM CaCl2, 1 mM MgCl2, 10 mM HEPES; and adjusted to pH 7.4 with NaOH. In some studies, the external sodium was reduced by equimolar replacement with choline. Osmolarity in the CsF internal and NaCl external solutions was adjusted to 300 mOsm/kg and 310 mOsm/kg with glucose, respectively. All recordings were performed at ambient temperature in a bath chamber with a volume of 150 µL. Control sodium currents were measured in 0.5% DMSO. Controls and representative compounds of the invention were applied to the recording chamber through a 4-pinch or 8-pinch valve bath perfusion system manufactured by ALA Scientific Instruments.
Currents were recorded at 40 kHz sampling frequency, filtered at […], and stored using a Digidata-1322A analogue/digital interface with the pClamp software (Axon Instruments). Series resistance compensation was applied (60-80%). […] All statistics in this study are given as mean ± SD.
The membrane potential was maintained at a voltage where inactivation of the channel is complete (which was -60 mV for both Nav1.7 and Nav1.5). The voltage is then stepped back to a very negative (Vhold = -150mV) voltage for 20 ms and then a test pulse is applied to quantify the compound block. The 20 ms brief repolarization was long enough for compound-free channels to completely recover from fast inactivation, but the compound-bound channels recovered more slowly such that negligible recovery could occur during this interval. The percent decrease in sodium current following wash-on of compound was taken as the percent block of sodium channels.
The Example numbers provided in Table 1 and Table 2 correspond to the Examples herein. TABLE 1: Inhibition of Nav1.7

## O=S(=O)(Nc1ncns1)c1cc(F)c(Oc2ccc(Cl)cc2-c2cccc3nccn23)cc1F [Example 30, 4-(4-chloro-2-(imidazo[1,2-a]pyridin-5-yl)phenoxy)-2,5-difluoro-N-(1,2,4-thiadiazol-5-yl)benzenesulfonamide]
Nav1.7; read-out: Nav1.7 IC50
  pIC50: 7.87
Nav1.5
  pIC50: < 5.00

## O=S(=O)(Nc1ncns1)c1cc(F)c(Oc2ccc(Cl)cc2-c2ccnc3nccn23)cc1F [Example 31, 4-(4-chloro-2-(imidazo[1,2-a]pyrimidin-5-yl)phenoxy)-2,5-difluoro-N-(1,2,4-thiadiazol-5-yl)benzenesulfonamide]
Nav1.7; read-out: Nav1.7 IC50
  pIC50: 8.10
Nav1.5
  pIC50: < 5.00

## Nc1nc2cc(-c3cc(Cl)ccc3Oc3cc(F)c(S(=O)(=O)Nc4ncns4)cc3F)ccc2[nH]1 [Example 38, 4-(2-(2-amino-1H-benzo[d]imidazol-5-yl)-4-chlorophenoxy)-2,5-difluoro-N-(1,2,4-thiadiazol-5-yl)benzenesulfonamide]
Nav1.7; read-out: Nav1.7 IC50
  pIC50: 9.52
Nav1.5
  pIC50: < 5.00

## CN(c1ncns1)S(=O)(=O)c1cc(F)c(Oc2ccc(Cl)cc2-c2ccc3[nH]c(N)nc3c2)cc1F [Example 41, 4-(2-(2-amino-1H-benzo[d]imidazol-5-yl)-4-chlorophenoxy)-2,5-difluoro-N-methyl-N-(1,2,4-thiadiazol-5-yl)benzenesulfonamide]
Nav1.7; IC50 class, read-out: Nav1.7
  pIC50: 6.00 to 7.00
Nav1.7; read-out: Nav1.7 IC50
  pIC50: 7.17
Nav1.5
  pIC50: 5.00 to 6.00

## Nc1noc2ccc(-c3cc(Cl)ccc3Oc3cc(F)c(S(=O)(=O)Nc4ncns4)cc3F)cc12 [Example 44, 4-(2-(3-aminobenzo[d]isoxazol-5-yl)-4-chlorophenoxy)-2,5-difluoro-N-(1,2,4-thiadiazol-5-yl)benzenesulfonamide]
Nav1.7; read-out: Nav1.7 IC50
  pIC50: 9.22
Nav1.5
  pIC50: 5.00 to 6.00

## Cc1ccc(Oc2cc(F)c(S(=O)(=O)Nc3ncns3)cc2F)c(-c2ccc3oc(=O)[nH]c3c2)c1 [Example 82, 2,5-difluoro-4-(4-methyl-2-(2-oxo-2,3-dihydrobenzo[d]oxazol-5-yl)phenoxy)-N-(1,2,4-thiadiazol-5-yl)benzenesulfonamide]
Nav1.7; read-out: Nav1.7 IC50
  pIC50: 9.15

## Nc1noc2ccc(-c3cccnc3Oc3cc(F)c(S(=O)(=O)Nc4ncns4)cc3F)cc12 [Example 86, 4-((3-(3-aminobenzo[d]isoxazol-5-yl)pyridin-2-yl)oxy)-2,5-difluoro-N-(1,2,4-thiadiazol-5-yl)benzenesulfonamide]
Nav1.7; IC50 class, read-out: Nav1.7
  pIC50: 6.00 to 7.00
Nav1.7; read-out: Nav1.7 IC50
  pIC50: 7.29

## CN(C)c1noc2ccc(-c3cc(Cl)ccc3Oc3cc(F)c(S(=O)(=O)Nc4ncns4)cc3F)cc12 [Example 98, 4-(4-chloro-2-(3-(dimethylamino)benzo[d]isoxazol-5-yl)phenoxy)-2,5-difluoro-N-(1,2,4-thiadiazol-5-yl)benzenesulfonamide]
Nav1.7; read-out: Nav1.7 IC50
  pIC50: 9.70
